In PubChem BioAssay (NCI):
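These data come from cells grown in 96-well plates and exposed to compound for 48 hours at five concentrations. At the GI50, growth is halved. TGI marks complete inhibition of growth.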

Tests used:
Assay in all cases: growth of human tumour cells (NCI), 48 h
[1] = test system: SNB-75 CNS
[2] = test system: A498 renal
[3] = test system: T-47D breast
[4] = test system: MOLT-4 leukemia
[5] = test system: M14 melanoma
[6] = test system: SK-MEL-5 melanoma
[7] = test system: SN12C renal
[8] = test system: OVCAR-4 ovarian
[9] = test system: SW-620 colon
[10] = test system: MDA-MB-231 breast

In the case of `CCOc1cccc(-c2nc(N)nc(Nc3ccccc3SSc3ccccc3Nc3nc(N)nc(-c4cccc(OCC)c4)n3)n2)c1`, the GI50 [1] was > 100 µM, the TGI [1] was > 100 µM and the GI50 [2] was 8.24 µM. For the same molecule, the TGI [2] was > 100 µM, the GI50 [3] was 2.42 µM and the TGI [3] was > 100 µM. For the same molecule, the GI50 [4] was 2.61 µM, the TGI [4] was > 100 µM and the GI50 [5] was 4.1 µM. For the same molecule, the TGI [5] was > 100 µM, the GI50 [6] was 6.8 µM and the TGI [6] was > 100 µM. It also gave a GI50 [7] of 2.32 µM, a TGI [7] of 14.8 µM and a GI50 [8] of 5.87 µM. For the same molecule, the TGI [8] was > 100 µM, the GI50 [9] was 4.56 µM and the TGI [9] was > 100 µM. It also gave a GI50 [10] of 3.72 µM and a TGI [10] of 27 µM.
With `Cc1cc(N(CCCl)CCCl)ccc1C=Nc1ccc2ccccc2c1` the GI50 [1] was 2.52 µM, the TGI [1] was > 89.7 µM and the GI50 [2] was 0.226 µM. For the same molecule, the TGI [2] was 1.13 µM, the GI50 [3] was 3.32 µM and the TGI [3] was > 100 µM. For the same molecule, the GI50 [4] was 4.52 µM, the TGI [4] was > 100 µM and the GI50 [5] was 31.7 µM. The TGI [5] was > 100 µM, the GI50 [6] was 6.8 µM and the TGI [6] was 27.6 µM. The GI50 [7] was 12.4 µM, the TGI [7] was > 100 µM and the GI50 [8] was 15.5 µM. The TGI [8] was > 100 µM, the GI50 [9] was 41.9 µM and the TGI [9] was > 100 µM. For the same molecule, the GI50 [10] was 34.5 µM and the TGI [10] was > 100 µM.
In the case of `Cn1cc(C2=C(c3cn(C)c4ccccc34)C(=O)NC2=O)c2ccccc21`, the GI50 [1] was 0.306 µM, the TGI [1] was 1.64 µM and the GI50 [2] was 0.457 µM. The TGI [2] was > 25 µM, the GI50 [3] was 1.8 µM and the TGI [3] was > 25 µM. For the same molecule, the GI50 [4] was 4.81 µM, the TGI [4] was > 25 µM and the GI50 [5] was 1.9 µM. For the same molecule, the TGI [5] was > 25 µM, the GI50 [6] was 0.873 µM and the TGI [6] was > 25 µM. For the same molecule, the GI50 [7] was 3.47 µM, the TGI [7] was > 25 µM and the GI50 [8] was 5.01 µM. The TGI [8] was > 25 µM, the GI50 [9] was 0.88 µM and the TGI [9] was > 25 µM. For the same molecule, the GI50 [10] was > 23.5 µM and the TGI [10] was > 25 µM.
In the case of `O=c1ssc(Cl)c1Cl`, the TGI [1] was > 10 µM, the TGI [2] was > 10 µM and the TGI [3] was > 10 µM. The TGI [4] was 4.9 µM, the TGI [5] was > 10 µM and the TGI [6] was > 10 µM. The TGI [7] was > 10 µM, the TGI [8] was > 10 µM and the TGI [9] was > 8.11 µM. The TGI [10] was > 10 µM.
For `O=C(c1ccco1)c1c(C(F)(F)F)n([O-])c2ccc(Cl)cc2[n+]1=O`, the GI50 [1] was 1.9 µM, the TGI [1] was 5.18 µM and the GI50 [2] was 1.46 µM. For the same molecule, the TGI [2] was 2.99 µM, the GI50 [3] was 1.41 µM and the TGI [3] was 3.55 µM. For the same molecule, the GI50 [4] was 0.0335 µM, the TGI [4] was 0.539 µM and the GI50 [5] was 0.374 µM. For the same molecule, the TGI [5] was 1.67 µM, the GI50 [6] was 0.538 µM and the TGI [6] was 1.64 µM. It also gave a GI50 [7] of 1.35 µM, a TGI [7] of 3.13 µM and a GI50 [8] of 1.55 µM. The TGI [8] was 5.73 µM, the GI50 [9] was 0.22 µM and the TGI [9] was 1.18 µM. It also gave a GI50 [10] of 0.376 µM and a TGI [10] of 1.41 µM.
In the case of `CC(C)(C)c1c2c(c(C(C)(C)C)c3c1OCN(Cc1ccccc1)C3)OCN(Cc1ccccc1)C2`, the TGI [1] was > 100 µM, the TGI [2] was 20.6 µM and the TGI [3] was > 100 µM. For the same molecule, the TGI [4] was 50.4 µM, the TGI [5] was 29 µM and the TGI [6] was 21 µM. The TGI [7] was 34.9 µM, the TGI [8] was > 100 µM and the TGI [9] was > 100 µM. It also gave a TGI [10] of 29.3 µM.
With `CC(=O)Nc1ccc(COC(O)CN2CCCCC2)cc1[N+](=O)[O-]` (stereo not drawn) the TGI [1] was > 100 µM, the TGI [2] was > 100 µM and the TGI [3] was > 100 µM. The TGI [4] was > 100 µM, the TGI [5] was > 100 µM and the TGI [6] was > 100 µM. For the same molecule, the TGI [7] was > 100 µM, the TGI [8] was > 100 µM and the TGI [9] was > 100 µM. The TGI [10] was > 100 µM.
Work on `CC(=O)OC1CC2C3CCC4C[C@@H](NC(=O)C=C(C)C)CC[C@]4(C)C3CC[C@]2(C)[C@H]1C(C)N(C)C` (stereo partly drawn) yielded a GI50 [1] of 2 µM, a TGI [1] of 6.51 µM and a GI50 [2] of 1.71 µM. It also gave a TGI [2] of 4.51 µM, a GI50 [3] of 1.55 µM and a TGI [3] of 6.08 µM. For the same molecule, the GI50 [4] was 1.32 µM, the TGI [4] was 4.18 µM and the GI50 [5] was 1.6 µM. For the same molecule, the TGI [5] was 3.39 µM, the GI50 [6] was 1.37 µM and the TGI [6] was 2.71 µM. The GI50 [7] was 2.4 µM, the TGI [7] was 8 µM and the GI50 [8] was 2.82 µM. For the same molecule, the TGI [8] was 17.5 µM, the GI50 [9] was 1.65 µM and the TGI [9] was 3.47 µM. For the same molecule, the GI50 [10] was 2.1 µM and the TGI [10] was 4.72 µM.
`CN(C)c1ccc(/C=C/C2=[N+](C)c3ccccc3C2(C)C)cc1` gave a GI50 [1] of 2.47 µM, a TGI [1] of 20.6 µM and a GI50 [2] of 8.86 µM. For the same molecule, the TGI [2] was 74.9 µM, the GI50 [3] was 0.401 µM and the TGI [3] was 9.29 µM. The GI50 [4] was 0.305 µM, the TGI [4] was 2.24 µM and the GI50 [5] was 0.75 µM. The TGI [5] was 14.4 µM, the GI50 [7] was 0.354 µM and the TGI [7] was 13.4 µM. It also gave a GI50 [8] of 1.63 µM, a TGI [8] of 31.5 µM and a GI50 [9] of 0.379 µM. It also gave a TGI [9] of 17.8 µM, a GI50 [10] of 1.51 µM and a TGI [10] of 20.9 µM.
`O=c1oc2ccc(Br)cc2c(=O)n1-c1ccc(I)cc1F` was tested, and the GI50 [1] was 0.219 µM, the TGI [1] was 1.36 µM and the GI50 [2] was 0.15 µM. For the same molecule, the TGI [2] was 0.377 µM, the GI50 [3] was 0.279 µM and the TGI [3] was 1.52 µM. It also gave a GI50 [4] of 0.579 µM, a TGI [4] of 3.22 µM and a GI50 [5] of 0.416 µM. The TGI [5] was 4.39 µM, the GI50 [6] was 0.246 µM and the TGI [6] was 0.642 µM. It also gave a GI50 [7] of 0.33 µM, a TGI [7] of 2.79 µM and a GI50 [8] of 0.389 µM. For the same molecule, the TGI [8] was 13.7 µM, the GI50 [9] was 0.479 µM and the TGI [9] was 10.5 µM. The GI50 [10] was 0.327 µM and the TGI [10] was 2.54 µM.
